{"source": "ChEMBL document CHEMBL1124317", "about": "“Rationale for the synthesis and preliminary biological evaluation of highly active new antitumor nitrosoureido sugars” (J Med Chem, 1989)", "format_in_all_cases": "functional", "key": {"Mus musculus [1]": {"system": "Mus musculus", "assay": "The number of B16 Melanocarcinoma mice survived after 60 days with compound injected by a dose of 5 mg/kg intraperitoneally; 1/10", "conditions": "route intraperitoneal"}, "Mus musculus [2]": {"system": "Mus musculus", "assay": "The number of B16 Melanocarcinoma mice survived after 30 days with compound injected by a dose of 10 mg/kg intraperitoneally; 10/10", "conditions": "route intraperitoneal"}, "Mus musculus [3]": {"system": "Mus musculus", "assay": "Anti tumor activity l when treated to mice with L1210 leukemia with 1.25 mg/kg dose of compound intraperitoneally was expressed as percent of treated to control (T/C %)", "conditions": "route intraperitoneal"}, "Mus musculus [4]": {"system": "Mus musculus", "assay": "Anti tumor activity l when treated to mice with L1210 leukemia with 5 mg/kg dose of compound intraperitoneally was expressed as percent of treated to control (T/C %)", "conditions": "route intraperitoneal"}, "Mus musculus [5]": {"system": "Mus musculus", "assay": "The number of L1210 leukemia mice survived after 30 days with compound injected by a dose of 1.25 mg/kg intraperitoneally; 0/8", "conditions": "route intraperitoneal"}, "Mus musculus [6]": {"system": "Mus musculus", "assay": "The number of L1210 leukemia mice survived after 30 days with compound injected by a dose of 10 mg/kg intraperitoneally; 8/8", "conditions": "route intraperitoneal"}, "Mus musculus [7]": {"system": "Mus musculus", "assay": "The number of L1210 leukemia mice survived after 30 days with compound injected by a dose of 20 mg/kg intraperitoneally; 10/10", "conditions": "route intraperitoneal"}, "Mus musculus [8]": {"system": "Mus musculus", "assay": "The number of L1210 leukemia mice survived after 30 days with compound in aqueous solution injected by a dose of 20 mg/kg intraperitoneally; 6/10", "conditions": "route intraperitoneal"}, "Mus musculus [9]": {"system": "Mus musculus", "assay": "The number of B16 Melanocarcinoma mice survived after 30 days with compound injected by a dose of 5 mg/kg intraperitoneally; 9/10", "conditions": "route intraperitoneal"}, "Mus musculus [10]": {"system": "Mus musculus", "assay": "The number of B16 Melanocarcinoma mice survived after 60 days with compound injected by a dose of 20 mg/kg intraperitoneally; 9/10", "conditions": "route intraperitoneal"}, "Mus musculus [11]": {"system": "Mus musculus", "assay": "Anti tumor activity in olive oil when treated to mice with B16 melanocarcinoma with 20 mg/kg dose of compound intraperitoneally was expressed as percent of treated to control (T/C %)", "conditions": "route intraperitoneal"}, "Mus musculus [12]": {"system": "Mus musculus", "assay": "Anti tumor activity in olive oil when treated to mice with L1210 leukemia with 20 mg/kg dose of compound intraperitoneally was expressed as percent of treated to control (T/C %)", "conditions": "route intraperitoneal"}, "Mus musculus [13]": {"system": "Mus musculus", "assay": "The number of B16 melanocarcinoma mice survived after 30 days with compound in olive oil injected by a dose of 20 mg/kg intraperitoneally; 13/20", "conditions": "route intraperitoneal"}, "Mus musculus [14]": {"system": "Mus musculus", "assay": "The number of L1210 leukemia mice survived after 60 days with compound injected by a dose of 10 mg/kg intraperitoneally; 9/10", "conditions": "route intraperitoneal"}, "Mus musculus [15]": {"system": "Mus musculus", "assay": "The number of L1210 leukemia mice survived after 60 days with compound injected by a dose of 2.5 mg/kg intraperitoneally; 0/8", "conditions": "route intraperitoneal"}, "Mus musculus [16]": {"system": "Mus musculus", "assay": "The number of L1210 leukemia mice survived after 60 days with compound injected by a dose of 30 mg/kg intraperitoneally; 9/10", "conditions": "route intraperitoneal"}, "Mus musculus [17]": {"system": "Mus musculus", "assay": "The number of L1210 leukemia mice survived after 30 days with compound injected by a dose of 0.625 mg/kg intraperitoneally; 0/8", "conditions": "route intraperitoneal"}, "Mus musculus [18]": {"system": "Mus musculus", "assay": "The number of Lewis lung mice survived after 30 days with compound in olive oil injected by a dose of 20 mg/kg intraperitoneally; 20/20", "conditions": "route intraperitoneal"}, "Mus musculus [19]": {"system": "Mus musculus", "assay": "Median survival time of the non surviving mice; treated with 2.5 mg/kg of compound to mice with L1210 leukemia; 40-54"}, "Mus musculus [20]": {"system": "Mus musculus", "assay": "Median survival time of the non surviving mice; treated with 10 mg/kg of compound to mice with B16 Melanocarcinoma; 34-47"}, "[21]": {"assay": "Ratio of mice died to that of mice treated with 20 mg/kg of compound in olive oil intraperitoneally with B16 Melanocarcinoma; 0/20", "conditions": "route intraperitoneal"}, "[22]": {"assay": "Ratio of mice died to that of mice treated with 5 mg/kg of compound in aqueous solution intraperitoneally with L1210 leukemia; 0/10", "conditions": "route intraperitoneal"}, "[23]": {"assay": "Mortality range of the mice with L1210 leukemia treated with 10 mg/kg of dose intraperitoneally with no of mice survived/no of mice treated; 0/10", "conditions": "route intraperitoneal"}, "[24]": {"assay": "Mortality range of the mice with L1210 leukemia treated with 10 mg/kg of dose intraperitoneally with no of mice survived/no of mice treated; 0/8", "conditions": "route intraperitoneal"}, "[25]": {"assay": "Mortality range of the mice with B16 Melanocarcinoma treated with 20 mg/kg of dose intraperitoneally with no of mice survived/no of mice treated; 0/10", "conditions": "route intraperitoneal"}, "[26]": {"assay": "Mortality range of the mice with L1210 leukemia treated with 30 mg/kg of dose intraperitoneally with no of mice survived/no of mice treated; 1/10", "conditions": "route intraperitoneal"}, "[27]": {"assay": "Mortality range of the mice with L1210 leukemia treated with 5 mg/kg of dose intraperitoneally with no of mice survived/no of mice treated; 0/10", "conditions": "route intraperitoneal"}, "[28]": {"assay": "Mortality range of the mice with B16 Melanocarcinoma treated with 30 mg/kg of dose intraperitoneally with no of mice survived/no of mice treated; 0/10", "conditions": "route intraperitoneal"}}, "data": [{"smiles": "CO[C@@H]1C[C@@H](NC(=O)N(CCCl)N=O)[C@H](O)[C@@H](CO)O1", "note": "[ECOMUSTINE]", "values": [{"measurement": "Survivals", "setting": "Mus musculus [1]", "value": 1}, {"measurement": "Survivals", "setting": "Mus musculus [2]", "value": 10}, {"measurement": "T/C", "setting": "Mus musculus [3]", "value": 188, "unit": "%"}, {"measurement": "T/C", "setting": "Mus musculus [4]", "value": 164, "unit": "%"}, {"measurement": "Survival after 30 days", "setting": "Mus musculus [5]", "value": 0}, {"measurement": "Survivals", "setting": "Mus musculus [6]", "value": 8}, {"measurement": "Survivals", "setting": "Mus musculus [7]", "value": 10}, {"measurement": "Survival after 30 days", "setting": "Mus musculus [8]", "value": 6}, {"measurement": "Survivals", "setting": "Mus musculus [9]", "value": 9}, {"measurement": "Survivals", "setting": "Mus musculus [10]", "value": 9}, {"measurement": "T/C", "setting": "Mus musculus [11]", "value": 239, "unit": "%"}, {"measurement": "T/C", "setting": "Mus musculus [12]", "value": 644, "unit": "%"}, {"measurement": "Survivals", "setting": "Mus musculus [13]", "value": 13}, {"measurement": "Survivals", "setting": "Mus musculus [14]", "value": 9}, {"measurement": "Survivals", "setting": "Mus musculus [15]", "value": 0}, {"measurement": "Survivals", "setting": "Mus musculus [16]", "value": 9}, {"measurement": "Survivals", "setting": "Mus musculus [17]", "value": 0}, {"measurement": "Survivals", "setting": "Mus musculus [18]", "value": 20}, {"measurement": "Median survival time", "setting": "Mus musculus [19]", "value": 43.2}, {"measurement": "Median survival time", "setting": "Mus musculus [20]", "value": 44}, {"measurement": "Ratio", "setting": "[21]", "value": 0}, {"measurement": "Ratio", "setting": "[22]", "value": 0}, {"measurement": "Ratio", "setting": "[23]", "value": 0}, {"measurement": "Ratio", "setting": "[24]", "value": 0}, {"measurement": "Ratio", "setting": "[25]", "value": 0}, {"measurement": "Ratio", "setting": "[26]", "value": 1}, {"measurement": "Ratio", "setting": "[27]", "value": 0}, {"measurement": "Ratio", "setting": "[28]", "value": 0}]}]}
